Results as given in ChEMBL document CHEMBL5653615 (J Biol Chem, 2013).

What was measured:
[1] = biological target: T1, Serine/threonine-protein kinase 17A (Homo sapiens) (UniProt Q9UEE5); assay: Inhibition of human DRAK1 at 500 nM by HotSpot assay relative to control
T1 sequence (whole entry): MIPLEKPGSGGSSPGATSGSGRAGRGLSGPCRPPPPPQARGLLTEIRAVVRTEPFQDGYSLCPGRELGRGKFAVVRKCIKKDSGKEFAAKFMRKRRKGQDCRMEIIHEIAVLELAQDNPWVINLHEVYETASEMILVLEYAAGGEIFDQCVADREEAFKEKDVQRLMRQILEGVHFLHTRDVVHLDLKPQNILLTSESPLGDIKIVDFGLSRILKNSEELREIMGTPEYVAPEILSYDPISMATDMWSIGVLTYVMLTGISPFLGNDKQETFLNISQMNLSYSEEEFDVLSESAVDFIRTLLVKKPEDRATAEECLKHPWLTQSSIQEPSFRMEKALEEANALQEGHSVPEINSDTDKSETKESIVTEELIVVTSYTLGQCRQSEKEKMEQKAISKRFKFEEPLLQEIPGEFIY

[2] = biological target: Tyrosine-protein kinase JAK1 (Homo sapiens) (UniProt P23458); assay: Inhibition of human JAK1 at 500 nM by HotSpot assay relative to control
[3] = biological target: T2, Mitogen-activated protein kinase kinase kinase kinase 2 (Homo sapiens) (UniProt Q12851); assay: Inhibition of human GCK at 500 nM by HotSpot assay relative to control
T2 sequence (whole entry): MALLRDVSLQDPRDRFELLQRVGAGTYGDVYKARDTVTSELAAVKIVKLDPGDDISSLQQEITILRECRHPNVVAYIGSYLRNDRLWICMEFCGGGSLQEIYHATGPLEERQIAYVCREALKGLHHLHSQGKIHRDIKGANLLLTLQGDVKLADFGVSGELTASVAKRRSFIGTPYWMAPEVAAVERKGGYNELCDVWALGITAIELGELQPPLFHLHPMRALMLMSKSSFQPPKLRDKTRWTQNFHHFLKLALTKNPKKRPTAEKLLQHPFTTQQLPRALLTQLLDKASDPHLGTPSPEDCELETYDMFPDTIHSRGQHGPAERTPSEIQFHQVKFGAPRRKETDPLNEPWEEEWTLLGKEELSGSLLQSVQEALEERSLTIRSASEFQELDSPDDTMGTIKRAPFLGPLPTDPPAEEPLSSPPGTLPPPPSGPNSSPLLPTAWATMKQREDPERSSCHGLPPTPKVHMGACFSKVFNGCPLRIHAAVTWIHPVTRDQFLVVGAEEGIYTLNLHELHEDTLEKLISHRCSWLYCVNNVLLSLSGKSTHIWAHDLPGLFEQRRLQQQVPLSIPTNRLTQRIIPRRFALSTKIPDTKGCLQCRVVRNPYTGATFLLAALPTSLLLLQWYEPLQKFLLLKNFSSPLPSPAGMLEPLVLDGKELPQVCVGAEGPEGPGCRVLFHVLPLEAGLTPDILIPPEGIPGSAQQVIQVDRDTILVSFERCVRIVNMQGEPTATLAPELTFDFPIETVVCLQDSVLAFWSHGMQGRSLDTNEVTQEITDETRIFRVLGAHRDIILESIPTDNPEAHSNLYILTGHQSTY

[4] = biological target: Receptor-type tyrosine-protein kinase FLT3 (Homo sapiens) (UniProt P36888); assay: Inhibition of human FLT3 at 500 nM by HotSpot assay relative to control
[5] = biological target: Serine/threonine-protein kinase PAK 2 (Homo sapiens) (UniProt Q13177); assay: Inhibition of human PAK2 at 500 nM by HotSpot assay relative to control
[6] = biological target: SRSF protein kinase 2 (Homo sapiens) (UniProt P78362); assay: Inhibition of human SRPK2 at 500 nM by HotSpot assay relative to control
[7] = biological target: T3, Serine/threonine-protein kinase 4 (Homo sapiens) (UniProt Q13043); assay: Inhibition of human STK4 at 1.82 nM by HotSpot assay relative to control
T3 sequence (whole entry): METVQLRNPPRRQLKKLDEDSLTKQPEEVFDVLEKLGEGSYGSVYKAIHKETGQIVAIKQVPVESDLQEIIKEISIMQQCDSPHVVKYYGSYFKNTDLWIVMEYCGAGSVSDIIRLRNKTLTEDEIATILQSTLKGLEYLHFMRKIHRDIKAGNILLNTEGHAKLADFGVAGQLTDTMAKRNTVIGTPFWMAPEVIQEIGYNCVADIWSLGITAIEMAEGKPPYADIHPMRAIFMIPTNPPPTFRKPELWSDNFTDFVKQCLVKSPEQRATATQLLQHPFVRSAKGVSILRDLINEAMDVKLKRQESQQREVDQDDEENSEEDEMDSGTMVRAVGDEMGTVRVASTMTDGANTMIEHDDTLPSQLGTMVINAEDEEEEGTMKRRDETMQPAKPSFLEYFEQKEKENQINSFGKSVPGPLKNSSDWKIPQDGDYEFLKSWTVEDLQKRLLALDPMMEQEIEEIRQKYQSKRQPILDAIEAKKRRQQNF

[8] = biological target: T4, Beta-adrenergic receptor kinase 1 (Homo sapiens) (UniProt P25098); assay: Inhibition of human GRK2 at 1.82 nM by HotSpot assay relative to control
T4 sequence (whole entry): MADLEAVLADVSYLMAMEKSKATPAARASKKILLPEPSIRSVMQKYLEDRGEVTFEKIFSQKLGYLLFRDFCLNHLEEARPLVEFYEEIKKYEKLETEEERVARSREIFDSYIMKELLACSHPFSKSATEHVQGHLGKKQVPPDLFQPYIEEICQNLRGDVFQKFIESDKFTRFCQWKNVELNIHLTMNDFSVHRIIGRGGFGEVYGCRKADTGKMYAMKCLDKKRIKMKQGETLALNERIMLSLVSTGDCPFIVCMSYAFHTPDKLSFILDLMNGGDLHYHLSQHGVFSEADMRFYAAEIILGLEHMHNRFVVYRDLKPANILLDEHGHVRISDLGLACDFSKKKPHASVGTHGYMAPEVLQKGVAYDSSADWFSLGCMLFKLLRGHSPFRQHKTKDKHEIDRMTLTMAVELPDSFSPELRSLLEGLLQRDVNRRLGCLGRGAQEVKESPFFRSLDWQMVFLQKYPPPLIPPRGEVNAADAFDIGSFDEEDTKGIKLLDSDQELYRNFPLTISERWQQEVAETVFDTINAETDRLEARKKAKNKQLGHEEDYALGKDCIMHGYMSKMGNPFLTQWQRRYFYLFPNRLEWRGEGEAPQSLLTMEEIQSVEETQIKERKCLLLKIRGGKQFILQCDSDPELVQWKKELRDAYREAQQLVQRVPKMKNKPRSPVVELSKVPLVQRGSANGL

[9] = biological target: G protein-coupled receptor kinase 5 (Homo sapiens) (UniProt P34947); assay: Inhibition of human GRK5 at 1.82 nM by HotSpot assay relative to control
[10] = biological target: Tyrosine-protein kinase Srms (Homo sapiens) (UniProt Q9H3Y6); assay: Inhibition of human SRMS at 1.82 nM by HotSpot assay relative to control
Sequence of Tyrosine-protein kinase Srms (Homo sapiens) (Q9H3Y6 whole entry): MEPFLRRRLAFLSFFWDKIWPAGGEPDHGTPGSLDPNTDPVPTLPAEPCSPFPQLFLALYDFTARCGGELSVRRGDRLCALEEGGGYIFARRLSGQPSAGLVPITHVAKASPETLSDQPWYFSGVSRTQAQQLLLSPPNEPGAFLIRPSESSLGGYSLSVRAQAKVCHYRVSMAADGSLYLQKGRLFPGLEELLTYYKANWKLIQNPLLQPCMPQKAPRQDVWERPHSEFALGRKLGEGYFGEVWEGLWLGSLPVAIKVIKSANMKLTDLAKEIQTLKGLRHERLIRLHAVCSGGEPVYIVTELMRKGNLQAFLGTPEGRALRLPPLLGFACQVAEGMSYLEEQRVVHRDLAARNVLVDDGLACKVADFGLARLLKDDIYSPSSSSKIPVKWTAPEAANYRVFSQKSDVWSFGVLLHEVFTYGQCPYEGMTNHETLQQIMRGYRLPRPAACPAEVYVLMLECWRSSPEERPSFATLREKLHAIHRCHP

Sequence of Serine/threonine-protein kinase PAK 2 (Homo sapiens) (Q13177 whole entry): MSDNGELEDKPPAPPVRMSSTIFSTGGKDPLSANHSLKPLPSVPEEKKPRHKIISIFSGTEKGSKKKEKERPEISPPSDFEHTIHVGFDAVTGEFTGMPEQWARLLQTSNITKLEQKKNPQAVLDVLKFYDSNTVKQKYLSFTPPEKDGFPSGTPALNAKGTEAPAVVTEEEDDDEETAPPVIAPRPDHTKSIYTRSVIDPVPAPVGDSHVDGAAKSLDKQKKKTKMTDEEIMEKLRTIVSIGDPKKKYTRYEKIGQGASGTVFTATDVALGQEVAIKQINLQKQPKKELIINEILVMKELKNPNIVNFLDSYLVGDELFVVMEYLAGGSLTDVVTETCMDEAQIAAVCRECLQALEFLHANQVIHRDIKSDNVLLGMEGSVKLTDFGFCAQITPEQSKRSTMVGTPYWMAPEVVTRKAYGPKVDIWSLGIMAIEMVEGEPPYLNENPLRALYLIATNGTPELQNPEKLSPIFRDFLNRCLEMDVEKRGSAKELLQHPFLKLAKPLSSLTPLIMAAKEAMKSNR
Sequence of SRSF protein kinase 2 (Homo sapiens) (P78362 whole entry, looked up): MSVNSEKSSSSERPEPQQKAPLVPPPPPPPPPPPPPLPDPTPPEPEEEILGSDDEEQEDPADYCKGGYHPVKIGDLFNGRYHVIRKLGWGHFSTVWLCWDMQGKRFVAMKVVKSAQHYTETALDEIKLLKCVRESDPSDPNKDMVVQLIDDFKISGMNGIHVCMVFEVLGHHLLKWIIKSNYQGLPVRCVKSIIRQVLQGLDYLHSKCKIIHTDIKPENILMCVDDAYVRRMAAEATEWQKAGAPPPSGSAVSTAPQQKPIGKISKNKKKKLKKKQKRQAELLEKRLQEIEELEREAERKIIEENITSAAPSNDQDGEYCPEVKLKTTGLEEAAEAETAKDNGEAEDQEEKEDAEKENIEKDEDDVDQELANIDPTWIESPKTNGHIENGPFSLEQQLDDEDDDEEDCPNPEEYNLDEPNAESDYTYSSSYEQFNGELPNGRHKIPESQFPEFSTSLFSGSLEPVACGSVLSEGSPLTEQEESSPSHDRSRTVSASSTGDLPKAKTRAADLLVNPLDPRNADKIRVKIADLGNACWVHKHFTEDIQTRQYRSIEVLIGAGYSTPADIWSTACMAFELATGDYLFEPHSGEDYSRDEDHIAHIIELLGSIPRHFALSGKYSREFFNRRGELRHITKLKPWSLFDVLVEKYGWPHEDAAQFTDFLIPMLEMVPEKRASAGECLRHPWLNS
Sequence of Tyrosine-protein kinase JAK1 (Homo sapiens) (P23458 whole entry): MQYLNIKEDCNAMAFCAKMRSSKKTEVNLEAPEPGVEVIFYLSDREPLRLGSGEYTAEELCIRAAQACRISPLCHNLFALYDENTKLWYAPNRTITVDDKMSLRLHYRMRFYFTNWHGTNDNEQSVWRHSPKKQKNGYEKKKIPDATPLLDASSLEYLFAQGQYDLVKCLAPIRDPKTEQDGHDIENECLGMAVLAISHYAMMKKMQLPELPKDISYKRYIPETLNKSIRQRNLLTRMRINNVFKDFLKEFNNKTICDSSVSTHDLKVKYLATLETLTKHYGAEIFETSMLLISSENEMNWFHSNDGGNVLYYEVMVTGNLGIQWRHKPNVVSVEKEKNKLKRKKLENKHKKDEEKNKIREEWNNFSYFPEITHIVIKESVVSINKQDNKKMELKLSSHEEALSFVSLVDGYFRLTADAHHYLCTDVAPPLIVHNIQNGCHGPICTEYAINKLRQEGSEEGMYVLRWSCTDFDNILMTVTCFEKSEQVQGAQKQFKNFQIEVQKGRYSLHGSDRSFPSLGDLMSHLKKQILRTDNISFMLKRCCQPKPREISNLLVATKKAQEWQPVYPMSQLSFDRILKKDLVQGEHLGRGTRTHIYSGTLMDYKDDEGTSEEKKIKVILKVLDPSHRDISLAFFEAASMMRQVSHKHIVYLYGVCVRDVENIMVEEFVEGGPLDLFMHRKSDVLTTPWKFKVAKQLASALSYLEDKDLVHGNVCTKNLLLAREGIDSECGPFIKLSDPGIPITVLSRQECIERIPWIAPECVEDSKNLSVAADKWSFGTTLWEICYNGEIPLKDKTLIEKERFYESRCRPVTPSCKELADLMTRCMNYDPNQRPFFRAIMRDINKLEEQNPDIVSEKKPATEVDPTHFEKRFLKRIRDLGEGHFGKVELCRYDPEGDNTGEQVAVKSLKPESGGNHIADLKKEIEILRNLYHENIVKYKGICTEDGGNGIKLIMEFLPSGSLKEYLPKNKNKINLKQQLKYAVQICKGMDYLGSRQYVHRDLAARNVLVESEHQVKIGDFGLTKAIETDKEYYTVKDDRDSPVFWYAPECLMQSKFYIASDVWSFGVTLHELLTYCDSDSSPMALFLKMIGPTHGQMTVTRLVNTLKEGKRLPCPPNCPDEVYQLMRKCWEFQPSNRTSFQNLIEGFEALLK
Sequence of Receptor-type tyrosine-protein kinase FLT3 (Homo sapiens) (P36888 whole entry): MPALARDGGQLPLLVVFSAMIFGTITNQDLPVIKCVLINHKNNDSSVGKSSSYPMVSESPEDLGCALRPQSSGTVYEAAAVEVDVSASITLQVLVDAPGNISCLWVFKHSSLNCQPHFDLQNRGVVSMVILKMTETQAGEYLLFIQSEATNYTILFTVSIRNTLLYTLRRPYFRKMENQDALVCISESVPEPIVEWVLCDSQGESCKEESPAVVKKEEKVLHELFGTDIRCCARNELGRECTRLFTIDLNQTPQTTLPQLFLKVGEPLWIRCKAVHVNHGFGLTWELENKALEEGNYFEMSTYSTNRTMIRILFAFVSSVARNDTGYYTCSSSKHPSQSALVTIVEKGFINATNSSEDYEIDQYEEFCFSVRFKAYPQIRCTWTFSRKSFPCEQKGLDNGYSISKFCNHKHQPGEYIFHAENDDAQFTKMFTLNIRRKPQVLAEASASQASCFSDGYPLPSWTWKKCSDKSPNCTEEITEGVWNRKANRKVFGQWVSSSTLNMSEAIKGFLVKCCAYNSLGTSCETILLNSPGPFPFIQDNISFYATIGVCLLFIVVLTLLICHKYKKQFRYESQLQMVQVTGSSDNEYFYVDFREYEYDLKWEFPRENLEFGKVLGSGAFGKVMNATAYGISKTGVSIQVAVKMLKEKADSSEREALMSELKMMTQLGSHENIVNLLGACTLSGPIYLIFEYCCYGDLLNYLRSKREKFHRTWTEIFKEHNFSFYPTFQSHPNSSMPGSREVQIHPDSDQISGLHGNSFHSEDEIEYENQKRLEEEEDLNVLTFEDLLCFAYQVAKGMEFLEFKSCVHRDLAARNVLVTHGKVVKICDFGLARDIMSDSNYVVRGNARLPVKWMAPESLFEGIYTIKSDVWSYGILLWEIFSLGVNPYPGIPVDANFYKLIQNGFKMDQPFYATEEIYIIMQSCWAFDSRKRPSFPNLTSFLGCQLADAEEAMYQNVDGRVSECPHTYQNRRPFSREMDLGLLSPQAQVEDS
Sequence of G protein-coupled receptor kinase 5 (Homo sapiens) (P34947 whole entry, looked up): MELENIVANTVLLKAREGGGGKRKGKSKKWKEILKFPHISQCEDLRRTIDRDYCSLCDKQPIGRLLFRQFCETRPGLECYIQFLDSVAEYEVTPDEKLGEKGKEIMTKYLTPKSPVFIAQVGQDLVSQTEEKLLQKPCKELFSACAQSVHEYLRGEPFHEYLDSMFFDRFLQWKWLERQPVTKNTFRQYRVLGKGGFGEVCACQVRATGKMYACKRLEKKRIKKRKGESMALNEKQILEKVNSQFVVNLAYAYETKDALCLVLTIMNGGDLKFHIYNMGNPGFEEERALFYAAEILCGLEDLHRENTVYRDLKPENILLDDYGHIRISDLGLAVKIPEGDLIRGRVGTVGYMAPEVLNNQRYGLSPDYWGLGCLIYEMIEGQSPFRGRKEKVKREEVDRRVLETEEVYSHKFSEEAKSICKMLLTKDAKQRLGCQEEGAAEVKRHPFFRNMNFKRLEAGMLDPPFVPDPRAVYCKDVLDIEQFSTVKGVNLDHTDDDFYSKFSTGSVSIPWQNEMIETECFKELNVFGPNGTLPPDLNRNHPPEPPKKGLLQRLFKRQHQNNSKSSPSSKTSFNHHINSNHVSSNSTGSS

| Compound | inhibition [1] [%] | inhibition [2] [%] | inhibition [3] [%] | inhibition [4] [%] | inhibition [5] [%] | inhibition [6] [%] | inhibition [7] [%] | inhibition [8] [%] | inhibition [9] [%] | inhibition [10] [%] |
| --- | --- | --- | --- | --- | --- | --- | --- | --- | --- | --- |
| Nc1n[nH]c2nnc(-c3c(-c4ccccc4)nn4ccccc34)cc12 | 0.09 | -3.59 | 1.42 | 36.5 | -0.21 | 26.2 | – | – | – | – |
| Oc1n[nH]c2nnc(-c3c(-c4ccccc4)nn4ccccc34)cc12 | -1.05 | -1.98 | -5.76 | 4.49 | -1.47 | 0.47 | – | – | – | – |
| C[C@@]1(C(=O)Nc2ccc(F)nc2)CCCN1c1nc(Nc2cc(C3CC3)n[nH]2)c2cccn2n1 | – | – | – | – | – | – | 9.85 | -0.25 | 1.88 | -3.77 |
